One compound from ChEMBL document CHEMBL5584264 (Bioorg Med Chem Lett, 2024) can be followed below.

In assay [1] the test system is RAW264.7. The assay can be described thus: Antiinflammatory activity against LPS-induced mouse RAW264.7 cells assessed as cell viability at 1 uM by celltiter-blue cell viability assay. It counts as functional. Conditions: read-out: Activity.
The test system of assay [2] is RAW264.7. Kind of assay: Antiinflammatory activity against LPS-induced mouse RAW264.7 cells assessed as reduction in IL-6 level at 1 uM preincubated with compound for 1 hr followed by LPS-induction and measured after 24 hrs by ELISA analysis relative to control. Format: functional. Set-up: scale not given: the % may be the effect or the level left. Conditions: time 25 hrs.

The target in assay [3] is Protein cereblon/DNA damage-binding protein 1 (Homo sapiens) (UniProt Q96SW2+Q16531). Kind of assay: Displacement of Cy5-tagged thalidomide-like probe from human CRBN/DDB1 complex by fluorescence polarization based CRBN binding assay. It counts as protein assay.
Sequence of Protein cereblon/DNA damage-binding protein 1 (Homo sapiens) (Q16531 2-1140 partner limits assumed): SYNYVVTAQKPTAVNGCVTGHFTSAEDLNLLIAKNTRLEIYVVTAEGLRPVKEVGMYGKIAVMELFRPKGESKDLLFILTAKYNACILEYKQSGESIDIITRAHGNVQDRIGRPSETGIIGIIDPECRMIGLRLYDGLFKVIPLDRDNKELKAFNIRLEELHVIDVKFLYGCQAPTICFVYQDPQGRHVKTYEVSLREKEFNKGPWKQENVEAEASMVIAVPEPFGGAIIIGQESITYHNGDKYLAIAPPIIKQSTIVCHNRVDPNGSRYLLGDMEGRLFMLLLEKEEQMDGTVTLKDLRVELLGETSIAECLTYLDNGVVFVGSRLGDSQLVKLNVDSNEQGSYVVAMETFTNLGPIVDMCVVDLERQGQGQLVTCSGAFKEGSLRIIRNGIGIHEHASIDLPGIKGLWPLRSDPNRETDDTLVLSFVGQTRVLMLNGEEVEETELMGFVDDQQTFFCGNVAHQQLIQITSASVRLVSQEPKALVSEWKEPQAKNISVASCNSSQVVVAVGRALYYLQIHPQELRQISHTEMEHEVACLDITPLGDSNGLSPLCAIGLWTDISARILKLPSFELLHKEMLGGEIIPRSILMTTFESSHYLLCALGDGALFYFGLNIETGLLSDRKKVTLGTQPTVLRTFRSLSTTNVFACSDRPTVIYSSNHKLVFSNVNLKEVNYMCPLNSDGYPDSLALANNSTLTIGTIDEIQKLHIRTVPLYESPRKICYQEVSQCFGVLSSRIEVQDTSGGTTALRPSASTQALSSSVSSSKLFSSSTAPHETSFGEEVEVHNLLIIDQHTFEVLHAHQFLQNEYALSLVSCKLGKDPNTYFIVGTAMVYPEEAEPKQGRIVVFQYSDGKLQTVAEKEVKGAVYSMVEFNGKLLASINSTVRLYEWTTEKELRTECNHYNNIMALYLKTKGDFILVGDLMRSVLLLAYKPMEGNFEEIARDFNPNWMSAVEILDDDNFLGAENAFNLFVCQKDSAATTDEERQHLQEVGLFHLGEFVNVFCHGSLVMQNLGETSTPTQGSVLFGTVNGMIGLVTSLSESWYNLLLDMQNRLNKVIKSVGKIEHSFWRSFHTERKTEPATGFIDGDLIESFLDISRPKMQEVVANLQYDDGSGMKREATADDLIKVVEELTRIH
Sequence of Protein cereblon/DNA damage-binding protein 1 (Homo sapiens) (Q96SW2 whole entry): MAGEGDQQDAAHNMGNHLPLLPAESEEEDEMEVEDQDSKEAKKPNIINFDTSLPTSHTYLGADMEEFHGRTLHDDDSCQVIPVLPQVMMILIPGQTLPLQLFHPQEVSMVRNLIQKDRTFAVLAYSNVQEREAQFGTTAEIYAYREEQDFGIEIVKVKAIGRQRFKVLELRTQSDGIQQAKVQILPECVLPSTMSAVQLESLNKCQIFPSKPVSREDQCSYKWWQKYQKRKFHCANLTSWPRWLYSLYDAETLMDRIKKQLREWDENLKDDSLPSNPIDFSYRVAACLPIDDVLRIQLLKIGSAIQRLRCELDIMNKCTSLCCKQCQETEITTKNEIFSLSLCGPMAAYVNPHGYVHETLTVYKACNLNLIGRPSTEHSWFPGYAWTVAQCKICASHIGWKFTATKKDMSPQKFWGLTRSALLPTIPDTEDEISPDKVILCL
Assay [4] relates to RAW264.7. The assay can be described thus: Antiinflammatory activity against LPS-induced mouse RAW264.7 cells assessed as cell viability at 30 uM by celltiter-blue cell viability assay. Format: functional. The note with it: read-out: Activity.
The target in assay [5] is Serotonin 3 (5-HT3) receptor. Kind of assay: Displacement of [3H]DTG from 5HT3 receptor (unknown origin) assessed as inhibition constant. It counts as protein-complex assay, Homo sapiens.
Assay [6] concerns RAW264.7. Kind of assay: Antiinflammatory activity against LPS-induced mouse RAW264.7 cells assessed as reduction in nitrite level at 30 uM preincubated with compound for 1 hr followed by LPS-induction and measured after 24 hrs by Fluorometric Assay relative to control. Format: functional. The arrangement: scale not given: the % may be the effect or the level left. Conditions: time 25 hrs.

In assay [7] the test system is RAW264.7. The assay can be described thus: Antiinflammatory activity against LPS-induced mouse RAW264.7 cells assessed as reduction in TNF-alpha level at 10 uM preincubated with compound for 1 hr followed by LPS-induction and measured after 24 hrs by ELISA analysis relative to control. Format: functional. Set-up: scale not given: the % may be the effect or the level left. The note with it: time 25 hrs.

The test system of assay [8] is RAW264.7. Kind of assay: Antiinflammatory activity against LPS-induced mouse RAW264.7 cells assessed as reduction in TNF-alpha level at 1 uM preincubated with compound for 1 hr followed by LPS-induction and measured after 24 hrs by ELISA analysis relative to control. Conditions: time 25 hrs. Set-up: scale not given: the % may be the effect or the level left. It counts as functional.

The test system of assay [9] is RAW264.7. The assay can be described thus: Antiinflammatory activity against LPS-induced mouse RAW264.7 cells assessed as reduction in TNF-alpha level at 30 uM preincubated with compound for 1 hr followed by LPS-induction and measured after 24 hrs by ELISA analysis relative to control. It counts as functional. Set-up: scale not given: the % may be the effect or the level left. The note with it: time 25 hrs.

For assay [10], the system named is RAW264.7. The assay can be described thus: Antiinflammatory activity against LPS-induced mouse RAW264.7 cells assessed as reduction in nitrite level at 10 uM preincubated with compound for 1 hr followed by LPS-induction and measured after 24 hrs by Fluorometric Assay relative to control. Format: functional. Set-up: scale not given: the % may be the effect or the level left. The note with it: time 25 hrs.

Assay [11] deals with RAW264.7. The assay can be described thus: Antiinflammatory activity against LPS-induced mouse RAW264.7 cells assessed as reduction in IL-6 level at 30 uM preincubated with compound for 1 hr followed by LPS-induction and measured after 24 hrs by ELISA analysis relative to control. The note with it: time 25 hrs. The arrangement: scale not given: the % may be the effect or the level left. It counts as functional.

For assay [12], the system named is RAW264.7. Kind of assay: Antiinflammatory activity against LPS-induced mouse RAW264.7 cells assessed as reduction in nitrite level at 1 uM preincubated with compound for 1 hr followed by LPS-induction and measured after 24 hrs by Fluorometric Assay relative to control. Format: functional. Set-up: scale not given: the % may be the effect or the level left. The note with it: time 25 hrs.

Assay [13] concerns the target 5-hydroxytryptamine receptor 2B (Homo sapiens, UniProt P41595). The assay can be described thus: Displacement of [3H]DTG from 5HT2B receptor (unknown origin) assessed as inhibition constant.
Assay [14] concerns RAW264.7. Kind of assay: Antiinflammatory activity against LPS-induced mouse RAW264.7 cells assessed as cell viability at 10 uM by celltiter-blue cell viability assay. The note with it: read-out: Activity. Format: functional.
For assay [15], the system named is RAW264.7. The assay can be described thus: Antiinflammatory activity against LPS-induced mouse RAW264.7 cells assessed as reduction in IL-6 level at 10 uM preincubated with compound for 1 hr followed by LPS-induction and measured after 24 hrs by ELISA analysis relative to control. It counts as functional. The arrangement: scale not given: the % may be the effect or the level left. Conditions: time 25 hrs.

The target of assay [16] is 5-hydroxytryptamine receptor 2A (Homo sapiens, UniProt P28223). The assay can be described thus: Displacement of [3H]DTG from 5HT2A receptor (unknown origin) assessed as inhibition constant.
Sequence of 5-hydroxytryptamine receptor 2A (P28223 whole entry): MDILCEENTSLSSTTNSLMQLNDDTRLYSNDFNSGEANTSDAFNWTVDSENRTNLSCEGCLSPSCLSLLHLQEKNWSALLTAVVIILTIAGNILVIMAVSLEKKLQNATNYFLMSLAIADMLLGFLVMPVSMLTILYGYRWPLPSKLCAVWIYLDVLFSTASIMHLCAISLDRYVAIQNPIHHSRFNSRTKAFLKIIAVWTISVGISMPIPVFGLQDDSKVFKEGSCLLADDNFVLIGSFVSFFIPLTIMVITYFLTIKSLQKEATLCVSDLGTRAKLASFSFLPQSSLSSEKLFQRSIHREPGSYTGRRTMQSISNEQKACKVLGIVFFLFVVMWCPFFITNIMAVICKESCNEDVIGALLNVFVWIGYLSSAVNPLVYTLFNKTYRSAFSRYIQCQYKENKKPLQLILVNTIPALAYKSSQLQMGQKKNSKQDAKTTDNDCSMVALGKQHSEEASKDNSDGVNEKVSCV

Sequence of 5-hydroxytryptamine receptor 2B (P41595 whole entry): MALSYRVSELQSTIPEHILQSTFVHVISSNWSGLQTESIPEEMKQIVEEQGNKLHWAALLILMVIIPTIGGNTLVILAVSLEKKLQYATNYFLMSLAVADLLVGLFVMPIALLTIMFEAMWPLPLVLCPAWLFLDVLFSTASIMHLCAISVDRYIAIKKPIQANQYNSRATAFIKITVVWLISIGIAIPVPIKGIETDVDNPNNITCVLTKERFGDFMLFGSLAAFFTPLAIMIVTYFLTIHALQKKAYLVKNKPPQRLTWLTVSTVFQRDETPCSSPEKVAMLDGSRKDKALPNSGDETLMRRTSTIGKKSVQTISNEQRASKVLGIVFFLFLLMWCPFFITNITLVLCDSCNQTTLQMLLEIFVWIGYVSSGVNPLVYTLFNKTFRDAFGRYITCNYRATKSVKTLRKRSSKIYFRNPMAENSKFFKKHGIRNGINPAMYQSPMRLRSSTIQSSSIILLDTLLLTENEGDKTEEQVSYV

As to `CS(=O)(=O)N1CCCC(N2C(=O)c3cccc(N)c3C2=O)C1` (stereo unspecified), the viability at 1 µM with RAW264.7 [1] came out at 103%. Further, the Activity is 111% in the assay with RAW264.7 [2]; “Dose-Dependent Effect” in assay [3]; 95% in the assay with RAW264.7 [6]; 99% in the assay with RAW264.7 [7]; 98% in the assay with RAW264.7 [8]; 96% in the assay with RAW264.7 [9]. Further, the Activity is given as 103% with RAW264.7 [10], 116% in the assay with RAW264.7 [11], 92% in the assay on RAW264.7 [12] and 112% in the assay with RAW264.7 [15]. The viability at 30 µM in the assay with RAW264.7 [4] came to 103%. The Ki in assay [5], in [13] and in [16] was above 10 µM each time. The viability at 10 µM in the assay with RAW264.7 [14] amounted to 103%.
